Legend:
Assay type in all cases: in vivo
[1] = tested on: Alopecurus myosuroides (ALOMY); experiment: Test Example 1 pre-emergence herbicidal activity; settings: Alopecurus myosuroides, 480 h, rate 250 g/ha, evaluated 20 days later, read-out: Pre-emergence activity ALOMY (100=total damage to plant; 0=no damage to plant)
How it was run: (§1)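 Sow in pots of standard soil → grow 1 day (pre-emergence) or 10 days (post-emergence) in glasshouse → spray aqueous formulated compound → grow on under optimum conditions → score damage 0–100 at day 20 (pre) or day 15 (post).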

[2] = tested on: Echinochloa crus-galli (ECHCG); experiment: Test Example 1 pre-emergence herbicidal activity; settings: Echinochloa crus-galli, 480 h, rate 250 g/ha, evaluated 20 days later, read-out: Pre-emergence activity ECHCG (100=total damage to plant; 0=no damage to plant)
How it was run: as §1

[3] = tested on: Avena fatua (AVEFA); experiment: Test Example 1 pre-emergence herbicidal activity; settings: Avena fatua, 480 h, rate 250 g/ha, evaluated 20 days later, read-out: Pre-emergence activity AVEFA (100=total damage to plant; 0=no damage to plant)
How it was run: as §1

[4] = tested on: Lolium perenne (LOLPE); experiment: Test Example 1 pre-emergence herbicidal activity; settings: Lolium perenne, 480 h, rate 250 g/ha, evaluated 20 days later, read-out: Pre-emergence activity LOLPE (100=total damage to plant; 0=no damage to plant)
How it was run: as §1

[5] = tested on: Digitaria sanguinalis (DIGSA); experiment: Test Example 1 pre-emergence herbicidal activity; settings: Digitaria sanguinalis, 480 h, rate 250 g/ha, evaluated 20 days later, read-out: Pre-emergence activity DIGSA (100=total damage to plant; 0=no damage to plant)
How it was run: as §1

[6] = tested on: Setaria faberi (SETFA); experiment: Test Example 1 pre-emergence herbicidal activity; settings: Setaria faberi, 480 h, rate 250 g/ha, evaluated 20 days later, read-out: Pre-emergence activity SETFA (100=total damage to plant; 0=no damage to plant)
How it was run: as §1

[7] = tested on: Alopecurus myosuroides (ALOMY); experiment: Test Example 1 post-emergence herbicidal activity; settings: 360 h, rate 125 g/ha, evaluated 15 days later, read-out: Post-emergence activity ALOMY (100=total damage to plant; 0=no damage to plant)
How it was run: as §1

[8] = tested on: Echinochloa crus-galli (ECHCG); experiment: Test Example 1 post-emergence herbicidal activity; settings: 360 h, rate 125 g/ha, evaluated 15 days later, read-out: Post-emergence activity ECHCG (100=total damage to plant; 0=no damage to plant)
How it was run: as §1

[9] = tested on: Avena fatua (AVEFA); experiment: Test Example 1 post-emergence herbicidal activity; settings: 360 h, rate 125 g/ha, evaluated 15 days later, read-out: Post-emergence activity AVEFA (100=total damage to plant; 0=no damage to plant)
How it was run: as §1

[10] = tested on: Lolium perenne (LOLPE); experiment: Test Example 1 post-emergence herbicidal activity; settings: 360 h, rate 125 g/ha, evaluated 15 days later, read-out: Post-emergence activity LOLPE (100=total damage to plant; 0=no damage to plant)
How it was run: as §1

[11] = tested on: Digitaria sanguinalis (DIGSA); experiment: Test Example 1 post-emergence herbicidal activity; settings: 360 h, rate 125 g/ha, evaluated 15 days later, read-out: Post-emergence activity DIGSA (100=total damage to plant; 0=no damage to plant)
How it was run: as §1

[12] = tested on: Setaria faberi (SETFA); experiment: Test Example 1 post-emergence herbicidal activity; settings: 360 h, rate 125 g/ha, evaluated 15 days later, read-out: Post-emergence activity SETFA (100=total damage to plant; 0=no damage to plant)
How it was run: as §1

| Structure (SMILES) | pest or weed control at 250 g/ha [1] [%] | pest or weed control at 250 g/ha [2] [%] | pest or weed control at 250 g/ha [3] [%] | pest or weed control at 250 g/ha [4] [%] | pest or weed control at 250 g/ha [5] [%] | pest or weed control at 250 g/ha [6] [%] | pest or weed control at 125 g/ha [7] [%] | pest or weed control at 125 g/ha [8] [%] | pest or weed control at 125 g/ha [9] [%] | pest or weed control at 125 g/ha [10] [%] | pest or weed control at 125 g/ha [11] [%] | pest or weed control at 125 g/ha [12] [%] |
| --- | --- | --- | --- | --- | --- | --- | --- | --- | --- | --- | --- | --- |
| CCc1cc(C)cc(CC)c1C1=C(O)[C@@H]2[C@@H]3O[C@@H](C[C@H]3c3cc(F)cc(F)c3)[C@@H]2C1=O [Example T173] | 90 | 70 | 70 | 100 | 70 | 60 | 100 | 100 | 90 | 90 | 70 | 90 |
| CCc1cc(C)cc(CC)c1C1=C(O)[C@@H]2[C@@H]3O[C@@H](C[C@H]3c3ccccc3[N+](=O)[O-])[C@@H]2C1=O [Example T177] | 60 | 70 | 50 | 70 | 10 | 50 | 80 | 80 | 70 | 30 | 30 | 20 |
| CCc1cc(C)cc(CC)c1C1=C(O)[C@@H]2[C@@H]3O[C@@H](C[C@H]3c3cccc(C)c3)[C@@H]2C1=O [Example T179] | 70 | 70 | 60 | 80 | 60 | 10 | 80 | 70 | 80 | 80 | 50 | 10 |
| CCc1cc(C)cc(CC)c1C1=C(O)[C@@H]2[C@@H]3O[C@@H](C[C@H]3c3cccc(C#N)c3)[C@@H]2C1=O [Example T182] | 30 | 90 | 50 | 40 | 80 | 50 | 100 | 100 | 90 | 80 | 100 | 100 |
| CCc1cc(C)cc(CC)c1C1=C(O)[C@@H]2[C@@H]3O[C@@H](C[C@H]3c3ccc(F)cc3)[C@@H]2C1=O [Example T185] | 80 | 80 | 80 | 100 | 80 | 80 | 90 | 100 | 80 | 80 | 100 | 100 |
| Cc1cc(C)c(C2=C(O)[C@@H]3[C@@H]4O[C@@H](C[C@H]4c4cnccn4)[C@@H]3C2=O)c(C)c1 [Example T187] | 10 | 10 | 20 | 60 | 20 | 40 | 70 | 70 | 10 | 40 | 60 | 60 |
| Cc1cc(C)c(C2=C(O)[C@@H]3[C@@H]4O[C@@H](C[C@H]4c4cnc5ccccc5n4)[C@@H]3C2=O)c(C)c1 [Example T188] | 40 | 60 | 0 | 50 | 100 | 70 | 80 | 100 | 70 | 30 | 100 | 70 |
| Cc1cc(C)c(C2=C(O)[C@@H]3[C@@H]4O[C@@H](C[C@H]4c4nc(C)cnc4C)[C@@H]3C2=O)c(C)c1 [Example T193] | 20 | 20 | 30 | 60 | 20 | 40 | 60 | 60 | 40 | 30 | 60 | 30 |
| CCc1nc2ccccc2nc1[C@@H]1C[C@@H]2O[C@H]1[C@H]1C(O)=C(c3c(C)cc(C)cc3C)C(=O)[C@H]12 [Example T194] | 0 | 50 | 20 | 20 | 70 | 50 | 30 | 80 | 0 | 20 | 70 | 0 |
| Cc1cc(C)c(C2=C(O)[C@@H]3[C@@H]4O[C@@H](C[C@H]4c4ncc(C(F)(F)F)cc4C(F)(F)F)[C@@H]3C2=O)c(C)c1 [Example T203] | 20 | 90 | 20 | 60 | 70 | 70 | 20 | 50 | 10 | 10 | 50 | 0 |
| COc1cc(C)c(C2=C(O)[C@H]3[C@@H](C2=O)[C@@H]2CC[C@H]3O2)c(C)c1 [Example T208] | 50 | 80 | 70 | 80 | 70 | 80 | 70 | 80 | 70 | 80 | 50 | 70 |

— patent publication US8754242B2, “Herbicides” (Syngenta Crop Protection LLC, priority 2007, dated 2014)
